Results published in ChEMBL document CHEMBL1147885, “A novel noninvasive method for assessing glutathione-conjugate efflux systems in the brain” (Bioorg Med Chem, 2007).

What was measured:
Assay type in all cases: ADME, organism-based
[1] = test system: Brain; test: Metabolic stability in intravenously dosed Wistar rat brain assessed as metabolite level after 15 mins by HPLC; conditions: in vivo, iv, 0.25 h
[2] = test system: Brain; test: Metabolic stability in intravenously dosed Wistar rat brain assessed as radioactivity remained in unchanged form after 15 mins by TLC; conditions: in vivo, iv, 0.25 h
[3] = test system: Brain; test: Metabolic stability in intravenously dosed Wistar rat brain assessed as metabolite level after 60 mins by HPLC; conditions: in vivo, iv, 1 h

Measured: Stability

[14CH3]n1cnc2ncnc(Cl)c21
80%: all assays above
